From patent publication US20070209082A1, “Txr1 and enhanced taxane sensitivity based on the modulation of a pathway mediated thereby” (priority 2005, published 2007)
Where two headings read alike, the source gives them in different places. Ends that are not written are not given here.

What was measured:
Clone 18 [1] = assay: MTT assay of drug sensitivity, Clone 18 cells; details: for Fold of resistance (Clone 18/M2182tTA): IC50 of clone 18 divided by IC50 of M2182tTA; for Effect on taxol resistance / taxol cytotoxicity of clone 18: agent added with taxol, MTT assay
Method: (§1) For subsequent plate assays of the effects of taxol and other drugs on colony formation, 1×10^4 cells per 10 cm plate or per each well of six-well plate were seeded one day prior to drug treatment at the concentrations indicated. After 7 to 14 days exposure to drug, the resistant colonies were stained with 0.5% crystal violet solution and photographed. For quantitative determination of the surviving fraction, the collection of crystal violet stained colonies were incubated with 0.5 ml of DMSO overnight and the absorbance at 570 nm of dye extracted solution was measured. The fraction of surviving cells was calculated relative to non-treated controls. Results were averaged from at least two to three independent experiments. For IC50 determination, 3×10^3 cells per well of a 96-well plate were seeded one day prior to treatment by serially diluted drugs or in combination with indicated protein/peptides. The viability of treated cells was quantified by their ability to reduce tetrazolium salt 3-(4,5-dimethylthiazol-2-y)-2,5-diphenyl tetrasodium bromide (MTT, Sigma) to a formazan dye whose absorbance is detectable at 570 nm. The IC50 value was defined as the dose of taxol that inhibited cell growth by 50%.

M2182tTA = assay: MTT assay of drug sensitivity, M2182tTA cells; type: cell-based, human; details: for Effect on killing of naive M2182tTA cells by taxol: agent added with taxol
Method: as §1

Clone 18 cells = assay: TUNEL assay of apoptosis, clone 18 cells; type: cell-based, human; details: clone 18, TSP-1 plus taxol
Method: For subsequent plate assays of the effects of taxol and other drugs on colony formation, 1×10^4 cells per 10 cm plate or per each well of six-well plate were seeded one day prior to drug treatment at the concentrations indicated. After 7 to 14 days exposure to drug, the resistant colonies were stained with 0.5% crystal violet solution and photographed. For quantitative determination of the surviving fraction, the collection of crystal violet stained colonies were incubated with 0.5 ml of DMSO overnight and the absorbance at 570 nm of dye extracted solution was measured. The fraction of surviving cells was calculated relative to non-treated controls. Results were averaged from at least two to three independent experiments. For IC50 determination, 3×10^3 cells per well of a 96-well plate were seeded one day prior to treatment by serially diluted drugs or in combination with indicated protein/peptides. The viability of treated cells was quantified by their ability to reduce tetrazolium salt 3-(4,5-dimethylthiazol-2-y)-2,5-diphenyl tetrasodium bromide (MTT, Sigma) to a formazan dye whose absorbance is detectable at 570 nm. The IC50 value was defined as the dose of taxol that inhibited cell growth by 50%. […]

Clone 18 [2] = test system: Clone 18
Method: as §1

[3] = agent added with adriamycin, etoposide, vinblastine, vincristine or epothilone B

With `COc1cccc2c1C(=O)c1c(O)c3c(c(O)c1C2=O)C[C@@](O)(C(=O)CO)C[C@@H]3O[C@H]1C[C@H](N)[C@H](O)[C@H](C)O1` [Adriamycin, adriamycin] the “Reduced killing of clone 18 cells (versus parental cells)” value (from here on “Reduced killing of clone 18 cells”) (Clone 18 [1]) was “No evidence of reduced killing”.
With `C/C(=C\c1csc(C)n1)[C@@H]1C[C@@H]2O[C@]2(C)CCC[C@H](C)[C@H](O)[C@@H](C)C(=O)C(C)(C)[C@@H](O)CC(=O)O1` [Epothilone B] the “Reduced killing of clone 18 cells” value (Clone 18 [1]) was “No evidence of reduced killing” and the “Fold of resistance (Clone 18/M2182tTA)” value (Clone 18 [1]) was 0.9.
For `COc1cc([C@@H]2c3cc4c(cc3[C@@H](O[C@@H]3O[C@@H]5CO[C@@H](C)O[C@H]5[C@H](O)[C@H]3O)[C@H]3COC(=O)[C@H]23)OCO4)cc(OC)c1O` [Etoposide, etoposide], the “Reduced killing of clone 18 cells” value (Clone 18 [1]) was “No evidence of reduced killing”.
`CC(=O)O[C@H]1C(=O)[C@@]2(C)[C@H]([C@H](OC(=O)c3ccccc3)[C@]3(O)C[C@H](OC(=O)[C@H](O)[C@@H](NC(=O)c4ccccc4)c4ccccc4)C(C)=C1C3(C)C)[C@]1(OC(C)=O)CO[C@@H]1C[C@@H]2O` [Taxol, Paclitaxel] was tested, and the “Fold of resistance (Clone 18/M2182tTA)” value (Clone 18 [1]) was “approximately two and a half-fold greater”.
`CC[C@]1(O)C[C@@H]2CN(CCc3c([nH]c4ccccc34)[C@@](C(=O)OC)(c3cc4c(cc3OC)N(C)[C@H]3[C@@](O)(C(=O)OC)[C@H](OC(C)=O)[C@]5(CC)C=CCN6CC[C@]43[C@@H]65)C2)C1` [Vinblastine, vinblastine] was tested, and the “Reduced killing of clone 18 cells” value (Clone 18 [1]) was “No evidence of reduced killing”.
With `CC[C@]1(O)C[C@H]2CN(CCc3c([nH]c4ccccc34)[C@@](C(=O)OC)(c3cc4c(cc3OC)N(C=O)[C@H]3[C@@](O)(C(=O)OC)[C@H](OC(C)=O)[C@]5(CC)C=CCN6CC[C@]43[C@@H]65)C2)C1` [Vincristine, vincristine] the “Reduced killing of clone 18 cells” value (Clone 18 [1]) was “No evidence of reduced killing”.
GVITRIR (human) [ABT-510] was tested, and the “Effect on taxol resistance / taxol cytotoxicity of clone 18” value (Clone 18 [1]) was “absence of any detectable effect”, the “Effect on taxol resistance / taxol cytotoxicity of clone 18” value (Clone 18 [1]; listed as ABT510) was “no effect” and the “Effect on killing of naive M2182tTA cells by taxol” value (M2182tTA; MTT assay) was “not and absence of any detectable effect”.
In the case of KRFYGGMWKK [4NGG], the “Effect on taxol resistance / taxol cytotoxicity of clone 18” value (Clone 18 [1]) is reported as “no effect”.
For KRFYVVMWKK [4N1K], the “Effect on taxol resistance / taxol cytotoxicity of clone 18” value (Clone 18 [1]) was “dose-dependent partial reversal”.
For “TSP-1: TSP-1 purified from human platelets; extracellular matrix bound adhesive glycoprotein”, the Taxol-induced apoptosis (Clone 18 cells) was “dramatically and synergistically increased”, the “Ability of TSP-1 alone to reduce survival and induce apoptosis” value (Clone 18 [1]; TSP-1 alone, at the dosage added to cultures of clone 18 cells) was “only limited ability to reduce survival and induce apoptosis” and the “Effect on killing of clone 18 cells by other chemotherapeutic agents” value (Clone 18 [1]; [3]) was “no effects”. The “Effect on taxol resistance / taxol cytotoxicity of clone 18” value (Clone 18 [2]) was “dose-dependent partial reversal”, the “Effect on sensitivity of M2182tTA cells to other chemotherapeutic drugs” value (M2182tTA; [3]) was “sensitization was not observed” and the “Effect on killing of naive M2182tTA cells by taxol” value (M2182tTA; MTT assay) was “reduced survival”.
With pertussus toxin the “Cells that survive taxol treatment” value (M2182tTA; M2182tTA, 0.5 μg/ml pertussis toxin, MTT assay) was “An increase in cells that survive taxol treatment”.
